{"source": "patent US20130281512A1", "about": "“AGENTS FOR TREATING DISORDERS INVOLVING MODULATION OF RYANODINE RECEPTORS” (LES LABORATOIRES SERVIER, priority 2012, published 2013)", "key": {"[1]": {"test": "Metabolic stability in rat microsomes (% remaining)", "assay_type": "in vitro ADME", "protocol": "(§1) 0.1M Tris HCl buffer at pH 7.4 containing 5 mM EDTA.\n(§2) To a 50 mL falcon tube containing 2.79 mL of dilution buffer were added 0.429 mL of NADPH-regenerating soln. A and 0.079 mL of NADPH-regenerating soln. B […]\n(§3) […] A 50 mL falcon tube containing 3.32 mL of dilution buffer was prewarmed at 37° C. for 15 min. (at least 10 min.) 0.178 mL of microsome (24.6 mg/mL) were added to the prewarmed dilution buffer. The protein concentration of this microsome preparation was 1.25 mg/mL.\n(§4) Sample (Test Compound)—Original and Intermediate Stock Solutions:\n(§5) 100 μM intermediate solution of the test compound from the original stock solution were prepared using the dilution buffer. A 5 μM solution was prepared by diluting the 100 μM intermediate solution using dilution buffer.\n(§6) (The experiments were conducted in 1.5 mL eppendorf micro centrifuge tubes) 0 minutes incubation. Procedure: a. Add 100 μL of prewarmed microsomes b. Add 50 μL of 5 μM solution of the test compound. c. Add 500 μL of cold stop solution (ice cold Methanol) d. Add 100 μL of NADPH cofactor solution to the eppendorf. a. Vortex mix the eppendorf. […]\n(§7) b. Add 100 μL of NADPH cofactor solution to the eppendorf. c. Add 50 μL of 5 μM solution of the test compound. d. Add 100 μL of prewarmed microsomes e. Incubate the eppendorf at 37° C. 300 rpm for ‘t’ min. on a thermomixer. f. Remove the eppendorf from thermomixer g. Add 500 μL of cold stop solution (ice cold Methanol) h. Vortex mix the eppendorf.\n(§8) Both the ‘0’ and ‘t’ minutes incubated samples were centrifuged at 15, 000 rcf at 4° C. for 15 min. 500 μL of the supernatant solution was removed and subject it to LC/MS analysis (SIM—Selected Ion Monitoring) […]\n(§9) Results are expressed as % test compound remaining=(MS Area response of T min sample/MS Area response of ‘0’ min sample)*100. The MS area used is an average of duplicate injections.\n(§10) Time points=0, 15, 30 and 60 min. for each test compound\n(§11) 2 μM Imipramine—5 min. and 2 μM Imipramine—15 min. incubation was used as a positive control for the rat and mouse liver microsome stability experiments."}, "[2]": {"test": "Metabolic stability in mouse microsomes (% remaining)", "assay_type": "in vitro ADME", "protocol": "as §1, §2, §3, §4, §5, §6, §7, §8, §9, §10, §11"}, "[3]": {"test": "Metabolic stability in human hepatic microsomes (Clint, predicted MF %)", "assay_type": "in vitro ADME", "protocol": "Compound solubilization: Stock solutions were made in DMSO, and working solutions in water containing 1 mg/ml BSA.\nPrediction of metabolic bioavailability: Metabolic bioavailability predictions (MF %) were based on in vitro metabolic stability measurements with hepatic microsomes assuming total absorption. Briefly, unchanged drugs were quantified by LC-MS-MS following incubation (10^−7M) with rat and human hepatic microsomes (0.33 mg protein/ml) after 0, 5, 15, 30 and 60 min of incubation in presence of NADPH (1 mM). Enzymatic reaction was stopped with methanol (v/v) and proteins were precipitated by centrifugation. The in vitro intrinsic clearances (Clint_mic) expressed as ml/min/g protein were the slope (after LN linearization) of the unchanged drug remaining concentration versus incubation time. In vitro Clint were then scaled up to in vivo whole body (vivoClint) using 0.045 mg prot/kg of liver and liver weight of 11 g for the rat and 1.2 kg for Man."}, "[4]": {"tested_on": "ischemia-reperfusion induced heart failure", "test": "Model of chronic post-ischemic heart failure in rat (ischemia-reperfusion injury)", "assay_type": "in vivo", "protocol": "Chronic heart failure was induced in male wistar rats (224-240 g, 10-11 weeks of age) by ischemia-reperfusion (I/R) injury. For I/R protocol, the left anterior descending (LAD) coronary artery was occluded for 1 h. Drug treatment (5 mg/kg/d or 10 mg/kg/d in drinking water) was initiated 1 week after reperfusion and was maintained for a 3 month study period. […] Cardiac specimens were also analyzed to assess hypertrophy and collagen content. The study design is depicted in FIG. 3. Experiments were performed in a blinded manner. On parameters measured over time, comparison of Sham versus Vehicle and comparison of drug treatments are analyzed by 2 way ANOVAs with repeated measures. On parameters measured at sacrifice and morphometry, comparisons of Sham versus Vehicle are analyzed by t-test and comparisons of drug treatments by 1-way ANOVA followed by Dunnett test."}, "rat hepatocytes": {"tested_on": "rat hepatocytes", "test": "Metabolic stability in rat hepatocytes", "assay_type": "in vitro ADME", "protocol": "Compound solubilization: Stock solutions were made in DMSO, and working solutions in William medium containing 1/10 rat plasma or 1/4 human plasma.\nMetabolic stability determination: Compounds were incubated at 10^−7 M with isolated hepatocytes (6E+5 cells/ml for rat hepatocytes and 4E+5 cells/ml for human hepatocytes) at 37° C. in plasma from the same species diluted in Wiliams medium (1/10 dilution for rat and 1/4 dilution for human). Sampling times were performed at 0, 10, 20, 30, 60 and 120 min and enzymatic reaction stopped with methanol (v/v). Proteins were precipitated by centrifugation and the supernatant was analyzed by LC/MS/MS. Clint expressed as ml/min/g protein were calculated as for hepatic microsomes using a ratio of 0.134 mg protein/ml for 4E+5 cells/ml for human and 0.201 mg protein/ml for 6E+5 cells/ml for rat. The presence of the reference drug and the potential metabolite was checked by LC/MS/MS during the assay in each sample."}, "[5]": {"details": "5 and 10 mg/kg/d in drinking water, one to three months, vs vehicle"}, "[6]": {"details": "5 and 10 mg/kg/d, invasive hemodynamics at 3 months, vs vehicle"}}, "data": [{"smiles": "COc1ccc2c(c1)CN(Cc1ccc(C(=O)O)cc1)CCS2", "note": "[Compound 1, 4-((7-Methoxy-2,3-dihydrobenzo[f][1,4]thiazepin-4(5H)-yl)methyl)benzoic acid]", "values": [{"measurement": "% remaining", "setting": "[1]; 15 min", "result": 54, "unit": "%"}, {"measurement": "% remaining", "setting": "[1]; 30 min", "result": 17, "unit": "%"}, {"measurement": "% remaining", "setting": "[1]; 1 h", "result": 2, "unit": "%"}, {"measurement": "% remaining", "setting": "[2]; 15 min", "result": 99, "unit": "%"}, {"measurement": "% remaining", "setting": "[2]; 30 min", "result": 98, "unit": "%"}, {"measurement": "% remaining", "setting": "[2]; 1 h", "result": 82, "unit": "%"}, {"measurement": "Class (metabolic bioavailability)", "setting": "[3]", "result": "high"}, {"measurement": "Clint_mic man (in vitro intrinsic clearance)", "setting": "[3]; 10^-7 M, 0.33 mg protein/ml, NADPH", "result": 9.1, "unit": "ml/min/gprot"}, {"measurement": "MF mic % (metabolic bioavailability)", "setting": "[3]; predicted from Clint assuming total absorption", "result": 75, "unit": "%"}, {"measurement": "systolic and diastolic cardiac function", "setting": "[4]; 5 mg/kg/d in drinking water, 3 months", "result": "beneficial effects"}, {"measurement": "interstitial collagen content", "setting": "[4]; 5 and 10 mg/kg/d in drinking water, 3 months, vs vehicle", "result": "reduced"}, {"measurement": "Ejection Fraction (EF)", "setting": "[4]; [5]", "result": "significantly increased"}, {"measurement": "LVEDV (LV end diastolic volume)", "setting": "[4]; [5]", "result": "decreased"}, {"measurement": "LVESV (LV end systolic volume)", "setting": "[4]; [5]", "result": "decreased"}, {"measurement": "body weight (BW)", "setting": "[4]; 5 and 10 mg/kg/d, 3 months", "result": "No effects"}, {"measurement": "hypertrophy (LV weight)", "setting": "[4]; 5 and 10 mg/kg/d, 3 months", "result": "No effects"}, {"measurement": "infarct size", "setting": "[4]; 5 and 10 mg/kg/d, 3 months", "result": "No effects"}, {"measurement": "LV systolic pressure", "setting": "[4]; 5 and 10 mg/kg/d, invasive hemodynamics at 3 months", "result": "no statistically significant change"}, {"measurement": "LV dP/dt max", "setting": "[4]; [6]", "result": "preservation"}, {"measurement": "LV dP/dt min", "setting": "[4]; [6]", "result": "preservation"}, {"measurement": "MF rat %", "setting": "rat hepatocytes", "result": 90, "unit": "%"}, {"measurement": "Clint", "setting": "rat hepatocytes; 6.00E+05 cells/ml, 10^-7 M", "result": 5, "unit": "ml/min/gprot"}]}]}
